{"source": "patent US6432957B1", "about": "“Piperazine derivative” (Kowa Co., Ltd., priority 2001, dated 2002)", "test_system": "U937 cells adhered to HUVEC stimulated by TNFα", "experiment": "Inhibitory effect on cell adhesion (U937 adhesion to TNFα-stimulated HUVEC)", "type": "cell-based", "conditions": "Homo sapiens, read-out: Inhibitory activity against cell adhesion, Percent inhibition (%); for inhibition at 1 µM: 1 μM test agent; for inhibition at 10 µM: 10 μM test agent", "method": "(Inhibitory Effect on Cell Adhesion)\nThis test was conducted by reference to the method of Ross et al. (J. Biol. Chem., 267, 8537-8543 (1992)). More specifically, after human umbilical venous endothelial cells (HUVEC) were cultured on a 48-well plate to confluent growth, TNFα was added thereto. Upon elapsed time of 5 hours after the addition, U937, which is a human monocytic/histocytic cell fluorescence-labeled with PKH2 (product of Dainippon Pharmaceutical Co., Ltd.), was added in a proportion of 1×10^6 cells per well. After the plate was left at rest at room temperature for 1 hour, unadhered U937 was washed out and lysed in 1% Triton X-100 to measure a remaining fluorescence intensity (excitation wavelength: 480 nm; measuring wavelength: 530 nm). HUVEC and U937 were cultured in EGM-2 (product of Sanko Junyaku K.K.) and 10% FCS-containing RPMI1640, respectively. Each test agent was added to HUVEC upon the addition of TNFα and to U937 24 hours prior to the cell adhesion test. The inhibitory activity was calculated out according to the equation [100−(C−B)/(A−B)×100 (%)], wherein A is the number of U937 cells adhered to HUVEC stimulated by TNFα when no test agent was added, B is the number of U937 cells adhered to HUVEC not stimulated by TNFα when no test agent was added, and C is the number of U937 cells adhered to HUVEC stimulated by TNFα when the test agent was added. As control compounds, Test Compound 1 described in Japanese Patent Application Laid-Open No. 9-143075 and dilazep described in Japanese Patent Application Laid-Open No. 11-92382 were simultaneously evaluated.", "note": "Counter-ions that a name gives are not always drawn."}
{"compound": "COc1cc(C(=O)OCCCN2CCCN(CCCOC(=O)c3cc(OC)c(OC)c(OC)c3)CC2)cc(OC)c1OC", "note": "[Dilazep, dilazep, reference compound]", "values": [{"measurement": "inhibition at 1 µM", "result": 12, "unit": "%"}, {"measurement": "inhibition at 10 µM", "result": 25, "unit": "%"}]}
{"compound": "COc1cc(-c2cc(CN3C[C@@H](C)N(Cc4ccnc(-c5cc(OC)c(OC)c(OC)c5)c4)[C@@H](C)C3)ccn2)cc(OC)c1OC", "note": "[Example 1, cis-N,N′-bis[[2-(3,4,5-trimethoxyphenyl)pyridin-4-yl]methyl]-2,6-dimethylpiperazine tetrahydrochloride]", "values": [{"measurement": "inhibition at 1 µM", "result": 76, "unit": "%"}, {"measurement": "inhibition at 10 µM", "result": 78, "unit": "%"}]}
{"compound": "COc1cc(-c2cc(CN3C[C@H](C)N(Cc4ccnc(-c5cc(OC)c(OC)c(OC)c5)c4)C[C@H]3C)ccn2)cc(OC)c1OC", "note": "[Example 2, trans-N,N′-bis[[2-(3,4,5-trimethoxyphenyl)-pyridin-4-yl]methyl]-2,5-dimethylpiperazine tetrahydrochloride]", "values": [{"measurement": "inhibition at 1 µM", "result": 42, "unit": "%"}, {"measurement": "inhibition at 10 µM", "result": 64, "unit": "%"}]}
{"compound": "COc1cc(-c2cc(CN3CCN(Cc4ccnc(-c5cc(OC)c(OC)c(OC)c5)c4)C(CO)C3)ccn2)cc(OC)c1OC", "note": "(centres unmarked) [Example 3, N,N′-bis[[2-(3,4,5-trimethoxyphenyl)pyridin-4-yl]methyl]-2-hydroxymethylpiperazine dimaleate]", "values": [{"measurement": "inhibition at 1 µM", "result": 34, "unit": "%"}, {"measurement": "inhibition at 10 µM", "result": 90, "unit": "%"}]}
{"compound": "COc1cc(-c2cc(CN3CCN(Cc4ccnc(-c5cc(OC)c(OC)c(OC)c5)c4)C(=O)C3)ccn2)cc(OC)c1OC", "note": "[Example 4, 2-oxo-N,N′-bis[[2-(3,4,5-trimethoxyphenyl)-pyridin-4-yl]methyl]piperazine 2.5 hydrochloride]", "values": [{"measurement": "inhibition at 1 µM", "result": 60, "unit": "%"}, {"measurement": "inhibition at 10 µM", "result": 79, "unit": "%"}]}
{"compound": "COc1cc(-c2cc(CN3CCN(Cc4ccnc(-c5cc(OC)c(OC)c(OC)c5)c4)[C@@H](C)C3=O)ccn2)cc(OC)c1OC", "note": "[Example 5, (3S)-3-methyl-2-oxo-N,N′-bis[[2-(3,4,5-trimethoxyphenyl)pyridin-4-yl]methyl]piperazine 2.5 hydrochloride]", "values": [{"measurement": "inhibition at 1 µM", "result": 51, "unit": "%"}, {"measurement": "inhibition at 10 µM", "result": 85, "unit": "%"}]}
{"compound": "COc1cc(-c2cc(CN3CCN(Cc4ccnc(-c5cc(OC)c(OC)c(OC)c5)c4)[C@@H](C(C)C)C3=O)ccn2)cc(OC)c1OC", "note": "[Example 6, (3S)-3-isopropyl-2-oxo-N,N′-bis[[2-(3,4,5-trimethoxyphenyl)pyridin-4-yl]methyl]piperazine sesqui-hydrochloride]", "values": [{"measurement": "inhibition at 1 µM", "result": 63, "unit": "%"}, {"measurement": "inhibition at 10 µM", "result": 77, "unit": "%"}]}
{"compound": "COc1cc(-c2cc(CN3CCN(Cc4ccnc(-c5cc(OC)c(OC)c(OC)c5)c4)[C@H](C(C)C)C3=O)ccn2)cc(OC)c1OC", "note": "[Example 7, (3R)-3-isopropyl-2-oxo-N,N′-bis[[2-(3,4,5-trimethoxyphenyl)pyridin-4-yl]methyl]piperazine tri-hydrochloride]", "values": [{"measurement": "inhibition at 1 µM", "result": 51, "unit": "%"}, {"measurement": "inhibition at 10 µM", "result": 70, "unit": "%"}]}
{"compound": "COc1cc(-c2cc(CN3CCN(Cc4ccnc(-c5cc(OC)c(OC)c(OC)c5)c4)[C@@H](CC(C)C)C3=O)ccn2)cc(OC)c1OC", "note": "[Example 8, (3S)-3-(2-methylpropyl)-2-oxo-N,N′-bis[[2-(3,4,5-trimethoxyphenyl)pyridin-4-yl]methyl]piperazine 2.5 hydrochloride]", "values": [{"measurement": "inhibition at 1 µM", "result": 63, "unit": "%"}, {"measurement": "inhibition at 10 µM", "result": 79, "unit": "%"}]}
{"compound": "COc1cc(-c2cc(CN3CCN(Cc4ccnc(-c5cc(OC)c(OC)c(OC)c5)c4)[C@@H](Cc4ccccc4)C3=O)ccn2)cc(OC)c1OC", "note": "[Example 9, (3S)-3-benzyl-2-oxo-N,N′-bis[[2-(3,4,5-trimethoxyphenyl)pyridin-4-yl]methyl]piperazine sesqui-hydrochloride]", "values": [{"measurement": "inhibition at 1 µM", "result": 38, "unit": "%"}, {"measurement": "inhibition at 10 µM", "result": 86, "unit": "%"}]}
